Data set [1] is described as follows: Binary supramolecular self-assembly systems of polymer and target: guest concentration over incubation time (Comparative Example 2). The format is physicochemical. The protocol: Experiments were conducted according to the steps in Comparative Example 1, and quantitative analysis was carried out using the analytical method for each target to investigate the regulation ability […] stacking.

For data set [2] the following is noted: cited from earlier work.
Data set [3] can be described thus: Guest molecule concentration after incubation in initial medium without polymer (Comparative Example 1). The class given is physicochemical. Particulars: 37° C. An outline of the steps: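 Dissolved guest content measured by HPLC of centrifuged supernatants (37° C., 13000 rpm, 5 min) sampled at 0.5 h, 3 h and 6 h. Incubation was polymer-free at 37° C.±0.5° C. in buffers of pH 2.0-7.4; nominal loading was set by maximum clinical dose.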

[4] abbreviates: binary system with 0.5% polymer 102, incubation 0.5 h.
Setting [5] is: binary system with 0.5% polymer 102, incubation 3 h.
Where [6] appears, read: binary system with 0.5% polymer 102, incubation 6 h.
[7] abbreviates: binary system with 0.5% polymer 101, incubation 0.5 h.
Setting [8] is: binary system with 0.5% polymer 101, incubation 3 h.
The mark [9] stands for this setting: binary system with 0.5% polymer 101, incubation 6 h.
Where [10] appears, read: binary system with 0.5% polymer 103, incubation 0.5 h.
[11] abbreviates: binary system with 0.5% polymer 103, incubation 3 h.
Where [12] appears, read: binary system with 0.5% polymer 103, incubation 6 h.
The mark [13] stands for this setting: binary system with 0.5% polymer 106, incubation 0.5 h.
Setting [14] is: binary system with 0.5% polymer 106, incubation 3 h.
[15] abbreviates: binary system with 0.5% polymer 106, incubation 6 h.
Where [16] appears, read: binary system with 0.5% polymer 107, incubation 0.5 h.
[17] abbreviates: binary system with 0.5% polymer 107, incubation 3 h.
Setting [18] is: binary system with 0.5% polymer 107, incubation 6 h.
Setting [19] is: binary system with 0.5% polymer 110, incubation 0.5 h.
Setting [20] is: binary system with 0.5% polymer 110, incubation 3 h.
[21] abbreviates: binary system with 0.5% polymer 110, incubation 6 h.

Take `Cc1c(C)c2c(c(C)c1O)CC[C@@](C)(CCC[C@H](C)CCC[C@H](C)CCCC(C)C)O2` [Vitamin E, vitamin E]: the results for the “Concentration of the target in the solution measured after different incubation time” value (shortened to “Concentration … after different incubation time”) in data set [1] (setting [4]), in data set [1] (setting [5]) and in data set [1] (setting [6]) were 28600 ng/mL, 57900 ng/mL and 36400 ng/mL, respectively. The “LogD7.4 or Log P” value in data set [2] is 10.50. The “Concentration of guest molecule measured after different incubated time” value (“Concentration … after different incubated time” for short) came to 20900 ng/mL in data set [3] (0.5 h, pH 6.8 phosphate buffer); 17900 ng/mL in data set [3] (3 h, pH 6.8 phosphate buffer); 11900 ng/mL in data set [3] (6 h, pH 6.8 phosphate buffer).
Turning to `CC1(C)CCC(CN2CCN(c3ccc(C(=O)NS(=O)(=O)c4ccc(NCC5CCOCC5)c([N+](=O)[O-])c4)c(Oc4cnc5[nH]ccc5c4)c3)CC2)=C(c2ccc(Cl)cc2)C1` [Venetoclax, venetoclax], the “Concentration … after different incubation time” value came to 233600 ng/mL in data set [1] (setting [7]); 249500 ng/mL in data set [1] (setting [8]); 252600 ng/mL in data set [1] (setting [9]); 151600 ng/mL in data set [1] (setting [4]); 254900 ng/mL in data set [1] (setting [5]); 272100 ng/mL in data set [1] (setting [6]). Besides, the “Concentration … after different incubation time” value in data set [1] (setting [10]) came to 78600 ng/mL; in data set [1] (setting [11]), 72900 ng/mL; in data set [1] (setting [12]), 59500 ng/mL; in data set [1] (setting [13]), 232200 ng/mL; in data set [1] (setting [14]) it was 250500 ng/mL; in data set [1] (setting [15]), 156800 ng/mL. Also, the “Concentration … after different incubation time” value in data set [1] (setting [16]) amounted to 152200 ng/mL; in data set [1] (setting [17]) it was 153100 ng/mL; in data set [1] (setting [18]), 156800 ng/mL; in data set [1] (setting [19]), 385500 ng/mL; in data set [1] (setting [20]), 534600 ng/mL; in data set [1] (setting [21]), 566200 ng/mL. For the same compound, the “LogD7.4 or Log P” value in data set [2] was 6.88. For the same compound, the “Concentration … after different incubated time” value in data set [3] (0.5 h, pH 6.8 phosphate buffer) came to 19800 ng/mL; in data set [3] (3 h, pH 6.8 phosphate buffer), 12400 ng/mL; in data set [3] (6 h, pH 6.8 phosphate buffer), 9600 ng/mL.
Take `CCOc1nc2cccc(C(=O)OC(C)OC(=O)OC3CCCCC3)c2n1Cc1ccc(-c2ccccc2-c2nnn[nH]2)cc1` (stereo not shown) [Candesartan Cilexetil, candesartan cilexetil]: the “Concentration … after different incubation time” value in data set [1] (setting [7]) amounted to 135300 ng/mL; in data set [1] (setting [8]) it was 34500 ng/mL; in data set [1] (setting [9]), 18400 ng/mL; in data set [1] (setting [4]), 47000 ng/mL; in data set [1] (setting [5]), 43800 ng/mL; in data set [1] (setting [6]), 4900 ng/mL. Further, the “Concentration … after different incubation time” value in data set [1] (setting [10]) turned out to be 91600 ng/mL; in data set [1] (setting [11]), 110500 ng/mL; in data set [1] (setting [12]), 120700 ng/mL; in data set [1] (setting [13]), 103100 ng/mL; in data set [1] (setting [14]), 16200 ng/mL; in data set [1] (setting [15]), 18800 ng/mL. Besides, the “Concentration … after different incubation time” value came to 189100 ng/mL in data set [1] (setting [16]); 33700 ng/mL in data set [1] (setting [17]); 28800 ng/mL in data set [1] (setting [18]); 4700 ng/mL in data set [1] (setting [19]); 18300 ng/mL in data set [1] (setting [20]); 3300 ng/mL in data set [1] (setting [21]). Further, the “LogD7.4 or Log P” value in data set [2] is 5.31. Moreover, the “Concentration … after different incubated time” value in data set [3] (0.5 h, pH 4.5 acetate buffer) was 3800 ng/mL; in data set [3] (3 h, pH 4.5 acetate buffer) it was 2100 ng/mL; in data set [3] (6 h, pH 4.5 acetate buffer), 2000 ng/mL.
In the case of `CCc1cc2c(cc1N1CCC(N3CCOCC3)CC1)C(C)(C)c1[nH]c3cc(C#N)ccc3c1C2=O` [Alectinib, alectinib], the “Concentration … after different incubation time” value in data set [1] (setting [7]) is 45800 ng/mL; in data set [1] (setting [8]), 31000 ng/mL; in data set [1] (setting [9]), 9400 ng/mL; in data set [1] (setting [4]), 51500 ng/mL; in data set [1] (setting [5]), 47500 ng/mL; in data set [1] (setting [6]), 45900 ng/mL. Also, the “Concentration … after different incubation time” value was found to be 1000 ng/mL in data set [1] (setting [10]); 900 ng/mL in data set [1] (setting [11]); 1300 ng/mL in data set [1] (setting [12]); 1400 ng/mL in data set [1] (setting [13]); 2100 ng/mL in data set [1] (setting [14]); 1900 ng/mL in data set [1] (setting [15]). Also, the “Concentration … after different incubation time” value in data set [1] (setting [16]) was 1500 ng/mL; in data set [1] (setting [17]), 800 ng/mL; in data set [1] (setting [18]), 2900 ng/mL; in data set [1] (setting [19]), 1900 ng/mL; in data set [1] (setting [20]) it was 1600 ng/mL; in data set [1] (setting [21]) it was 1300 ng/mL. For the same compound, the “LogD7.4 or Log P” value in data set [2] is 4.75. In addition, the “Concentration … after different incubated time” value worked out at 2500 ng/mL in data set [3] (0.5 h, pH 6.8 phosphate buffer); 10200 ng/mL in data set [3] (3 h, pH 6.8 phosphate buffer); 2200 ng/mL in data set [3] (6 h, pH 6.8 phosphate buffer).
